Key:
Format in all cases: cell-based, human
[1] = test system: matrix metalloproteinases (MMPs); assay: Zymogram and Western analysis of chondrocyte-derived metalloproteinases in spent media; conditions: substrate gels
Method: FIG. 10, in two parts, FIGS. 10A and 10B, represent SDS-substrate gel (zymogram) analysis of cytokine-mediated production of matrix metalloproteinases (MMPs) in fetal articular chondrocytes (neocartilage disks). Negative staining indicates the molecular weight (MW) in kDa of the active proteases. • Spent media were collected 72 h post stimulation with the indicated cytokine (5 ng/ml) and concentrated 16-fold by dialysis/lyophilization. • Unreduced samples were separated on 10% SDS substrate gels containing either gelatin (FIG. 10A) or casein (FIG. 10B) 0.1%. • MMPs were renatured following SDS removal by extensive washing in 2.5% Triton X-100 and lytic bands visualized via negative staining with Coomassie blue, following incubation in a calcium and zinc containing buffer for 4 hr at 37° C. • Latent enzyme activity is shown in lanes 1–4, while the corresponding active enzymes were prepared by preincubation with 1 mM 4-aminophenyl mercuric acetate (APMA lanes 5–8).
Conditioned media were thawed and identification of chondrocyte-derived metalloproteinases assessed by zymogen substrate gel electrophoresis, as well as Western analysis following SDS-PAGE. Further studies examined the effect of activating agents on synthesis of S-GAG and collagen via radiolabeled incorporation.

[2] = test system: neocartilage; assay: Cytokine-induced resorption of neocartilage (matrix content, gross and histological appearance)
Method: It is seen that chronic IL-1 stimulation alters cartilage staining for proteoglycan and collagen. • Day 60 neocartilages were treated with 1 ng/ml rhIL-1β for 30 days. Fresh media and cytokine were added every 48 hours. • Neocartilages were harvested (day 90) and stained with safranin-O and pentachrome as before. […] Magnification×100.
Neocartilage cultures were established in 24 or 48 well plastic dishes (Corning) as described above (Example 1) and grown to day 30. The hyaline cartilage matrix was then stimulated to undergo autolytic degradation following 30 day activation with increasing concentrations of a variety of cytokine and/or inflammatory agents, including IL-1, Il-6, IL-17, TNF-α, LPS, and phorbol ester. Culture media were collected every 48 hours and subsequently changed by the addition of fresh media±inflammatory stimuli.
Cultures were terminated and the biochemical composition of the neocartilage matrix that remained was analyzed as described previously. Parallel samples were processed for light and transmission electron microscopy for histological evaluation of extracellular matrix components.

[3] = test system: neocartilage; assay: as above; conditions: day 28 tissue stimulated for additional 36 days
[4] = test system: Fetal chondrocytes; assay: Effect of heparin on neocartilage formation; conditions: day 10–28
Method: Day 10 neocartilage was treated with increasing amounts of heparin for 18 days. Fresh media, containing heparin and ascorbate were added every 72–96 hrs. Media were collected and frozen for future analysis. Cultures were harvested on day 28 and the S-GAG content (FIG. 18A) and OH-proline content (FIG. 18B) of the resultant neocartilage assayed as described hereinbelow.
Fetal chondrocytes were grown as described above and subdivided into three groups on day 10 to investigate the effect of heparin on neocartilage formation. In low doses, heparin is known to increase the activity of certain growth factors, for example the fibroblast growth factor (FGF) family of related proteins, by acting as a co-factor, whereas greater amounts of heparin will strip away certain growth factors from the extracellular matrix and thereby impede tissue repair.
Sterile heparin was added to the media at a final concentration of […] for the duration of the culture period (i.e. from day 10–28). Media were exchanged every 3–4 days and recovered for electrophoretic analysis of secreted proteins. Cell layers were removed and the S-GAG (FIG. 18A), hydroxy proline (FIG. 18B), and DNA content quantitated as before (FIG. 18).

[5] = cytokine 1.0 (ng/ml), chronic treatment
[6] = cytokine 5.0 (ng/ml), chronic treatment

CCCCCCCCCCCCCC(=O)O[C@@H]1[C@@H](C)[C@@]2(O)[C@@H](C=C(CO)C[C@]3(O)C(=O)C(C)=C[C@@H]23)[C@@H]2C(C)(C)[C@]12OC(C)=O [Phorbol ester]
metalloproteinase synthesis induced [1]: specifically induced synthesis of gelatinase B

IL-1β: cytokine used to stimulate resorption of neocartilage
OH-proline content of tissue ([2]; cytokine 0.1 ng/ml, chronic treatment): 572 ± 105 pmol
OH-proline content of tissue [2, 5]: 541 ± 16 pmol
OH-proline content of tissue [2, 6]: 501 ± 48 pmol
OH-proline content of tissue ([2]; cytokine + 50 mU plasminogen, cytokine concentration not printed on the line): 460 ± 16 pmol
thickness of the synthesized matrix ([2]; day 60 neocartilage, 1 ng/ml for 30 days): significant reduction in the thickness of the synthesized matrix
safranin-O and pentachrome staining intensity ([2]; day 60 neocartilage, 1 ng/ml for 30 days, versus untreated controls): Staining intensity is markedly reduced
gross appearance of neocartilage on removal from plastic surface [3]: retracted considerably upon removal from the plastic surface

heparin
defect in matrix deposition ([4]; 2 μg/ml): much less severe
inhibition in OH-proline (matrix deposition) ([4]; highest concentration of heparin (20 μg)): 33%

TNF-α
OH-proline content of tissue [2, 5]: 403 pmol
OH-proline content of tissue [2, 6]: 355 pmol
gross appearance of neocartilage on removal from plastic surface [3]: retracted considerably upon removal from the plastic surface

B1: plasminogen: added to enhance the activation of latent MMPs via the plasminogen activator/plasmin cascade (protein, UniProt P00747 20-810, looked up)
Plasminogen: EPLDDYVNTQGASLFSVTKKQLGAGSIEECAAKCEEDEEFTCRAFQYHSKEQQCVIMAENRKSSIIIRMRDVVLFEKKVYLSECKTGNGKNYRGTMSKTKNGITCQKWSSTSPHRPRFSPATHPSEGLEENYCRNPDNDPQGPWCYTTDPEKRYDYCDILECEEECMHCSGENYDGKISKTMSGLECQAWDSQSPHAHGYIPSKFPNKNLKKNYCRNPDRELRPWCFTTDPNKRWELCDIPRCTTPPPSSGPTYQCLKGTGENYRGNVAVTVSGHTCQHWSAQTPHTHNRTPENFPCKNLDENYCRNPDGKRAPWCHTTNSQVRWEYCKIPSCDSSPVSTEQLAPTAPPELTPVVQDCYHGDGQSYRGTSSTTTTGKKCQSWSSMTPHRHQKTPENYPNAGLTMNYCRNPDADKGPWCFTTDPSVRWEYCNLKKCSGTEASVVAPPPVVLLPDVETPSEEDCMFGNGKGYRGKRATTVTGTPCQDWAAQEPHRHSIFTPETNPRAGLEKNYCRNPDGDVGGPWCYTTNPRKLYDYCDVPQCAAPSFDCGKPQVEPKKCPGRVVGGCVAHPHSWPWQVSLRTRFGMHFCGGTLISPEWVLTAAHCLEKSPRPSSYKVILGAHQEVNLEPHVQEIEVSRLFLEPTRKDIALLKLSSPAVITDKVIPACLPSPNYVVADRTECFITGWGETQGTFGAGLLKEAQLPVIENKVCNRYEFLNGRVQSTELCAGHLAGGTDSCQGDSGGPLVCFEKDKYILQGVTSWGLGCARPNKPGVYVRVSRFVTWIEGVMRNN
OH-proline content of tissue ([2]; 50 mU plasminogen alone, no cytokine, chronic treatment): 1648 ± 72 pmol
